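48-hour exposure; five concentrations; linearly interpolated endpoints. GI50 marks 50% less growth.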 The source made the active and inactive calls. Cut-off read from the data, not from the text of the source: active = GI50 up to about 1.1 µM and inactive = higher.

Among the test systems are A498; HCC 2998; HOP-92; HT-29; Hs-578T; M14; MDA-N; MOLT-4; OVCAR-5; RXF 393; SF-268; SF-295; SK-MEL-2; SK-MEL-5; SNB-75; T47D; TK-10; UACC-62; UO-31.
Experiment in all cases: NCI tumour cell line growth inhibition, 48 h

With `NC(=O)CSc1nc2ccccc2c(=O)n1N`, the GI50 with A498, in the test with HCC 2998, in the test with HOP-92, in the test on HT-29, with Hs-578T and with M14 was > 100 µM (inactive) each time. The GI50 with MDA-N, in the test with MOLT-4, in the test on OVCAR-5, in the test on RXF 393, with SF-268 and in the test with SF-295 was > 100 µM (inactive) each time. The GI50 in the test with SK-MEL-2, with SK-MEL-5, in the test on SNB-75, in the test with T47D, with TK-10 and with UACC-62 was > 100 µM (inactive) in each case. For the same compound, in the test on UO-31, the GI50 is > 100 µM (inactive).
Consider `COc1ccc(N2C(=O)/C(=C\c3cc(OC)c(OC)c(OC)c3)SC2c2ccccc2)cc1` (stereo unspecified), for which the GI50 in the test with A498 was > 100 µM (inactive); with HCC 2998, > 100 µM (inactive); with HOP-92, > 100 µM (inactive); with HT-29, > 100 µM (inactive); in the test with Hs-578T it was 50.9 µM (inactive); with M14 it was 55.7 µM (inactive). Besides, the GI50 with MDA-N was 25.4 µM (inactive); in the test with MOLT-4, > 100 µM (inactive); in the test with OVCAR-5, > 100 µM (inactive); with RXF 393, 42.1 µM (inactive); in the test on SF-268 it was > 100 µM (inactive); in the test on SF-295 it was 50.5 µM (inactive). The GI50 in the test with SK-MEL-2 was > 100 µM (inactive); in the test on SK-MEL-5 it was 23.7 µM (inactive); in the test on T47D it was 42.6 µM (inactive); in the test with TK-10, > 100 µM (inactive); with UACC-62, 58.9 µM (inactive); with UO-31, 46.7 µM (inactive).
Consider `CCOC(=O)c1sc2nc(SC)nc3c2c1NCN3c1ccc2c(c1)OCO2`, for which the GI50 with A498 is 33.3 µM (inactive); with HCC 2998, 44.7 µM (inactive); with HOP-92 it was 12.5 µM (inactive); in the test with HT-29, 31.3 µM (inactive); in the test on Hs-578T it was 3.58 µM (inactive); in the test with M14, 15.5 µM (inactive). The GI50 with MDA-N was 44.3 µM (inactive); in the test on MOLT-4, 26.1 µM (inactive); in the test on OVCAR-5, 97.5 µM (inactive); in the test with RXF 393, 3.14 µM (inactive); with SF-268, 3.42 µM (inactive); in the test on SF-295 it was 10.9 µM (inactive). Further, the GI50 in the test on SK-MEL-2 was 18.3 µM (inactive); with SK-MEL-5, 67.5 µM (inactive); in the test with T47D, 18.9 µM (inactive); in the test with TK-10, 17.2 µM (inactive); in the test on UACC-62, 12.2 µM (inactive); in the test with UO-31, 15.5 µM (inactive).
Turning to `C=C1C(=O)O[C@H]2[C@@H]3O[C@@](C)(CC/C=C(\C)CCC[C@@H]2C)[C@H](O)C[C@@H]13`, the GI50 with A498 is 25.1 µM (inactive); in the test with HCC 2998, 5.02 µM (inactive); in the test on HOP-92, 3.42 µM (inactive); with HT-29 it was 1.38 µM (inactive); in the test on Hs-578T it was 3.29 µM (inactive); in the test on M14, 1.95 µM (inactive). Further, the GI50 in the test with MDA-N is 2.36 µM (inactive); in the test with MOLT-4, 3.08 µM (inactive); in the test on OVCAR-5 it was 13.2 µM (inactive); with RXF 393, 3.94 µM (inactive); in the test with SF-268 it was 16.8 µM (inactive); in the test on SF-295, 13.9 µM (inactive). Further, the GI50 with SK-MEL-2 was 11.8 µM (inactive); in the test on SK-MEL-5, 2.08 µM (inactive); in the test with SNB-75, 16.4 µM (inactive); in the test with T47D it was 3.58 µM (inactive); in the test on TK-10, 4.81 µM (inactive); with UACC-62, 3.73 µM (inactive). The GI50 in the test with UO-31 was 2.87 µM (inactive).
For the compound `Cc1ccc(S(=O)(=O)N/N=C2\CC3C4CCC3C2C4)cc1` (stereo unspecified), the GI50 with A498, in the test on HCC 2998, with HOP-92, in the test on HT-29, with Hs-578T and with M14 was > 100 µM (inactive) throughout. Further, the GI50 in the test on MDA-N, with MOLT-4, in the test with OVCAR-5, in the test on RXF 393, in the test on SF-268 and in the test on SF-295 was > 100 µM (inactive) throughout. The GI50 is > 100 µM (inactive) in the test with SK-MEL-2; > 100 µM (inactive) with SK-MEL-5; 0.0859 µM (active) with SNB-75; > 100 µM (inactive) in the test on T47D; > 100 µM (inactive) in the test with TK-10; > 100 µM (inactive) in the test on UACC-62. Also, in the test with UO-31, the GI50 is > 100 µM (inactive).
Regarding `OCCCCn1cc(Cn2ncc3c(NCc4ccccc4)ncnc32)nn1`, the GI50 in the test with A498, in the test with HCC 2998, with HOP-92, in the test on HT-29, in the test with Hs-578T and in the test on M14 was > 100 µM (inactive) each time. For the same compound, the GI50 is 42.8 µM (inactive) in the test on MDA-N; 53.1 µM (inactive) with MOLT-4; > 100 µM (inactive) with OVCAR-5; > 100 µM (inactive) with RXF 393; > 100 µM (inactive) in the test on SF-268; > 100 µM (inactive) in the test with SF-295. For the same compound, the GI50 with SK-MEL-2 was > 100 µM (inactive); with SK-MEL-5, > 100 µM (inactive); in the test on T47D it was 66.1 µM (inactive); with TK-10, > 100 µM (inactive); with UACC-62 it was > 100 µM (inactive); with UO-31, > 100 µM (inactive).
As to `OC12C3C4CC5C(C4[C@@H]1Br)C2[C@@](O)(c1c(F)c(F)c(F)c(F)c1F)C53` (stereo partly specified), the GI50 was 33.2 µM (inactive) in the test with A498; 36.5 µM (inactive) in the test on HCC 2998; 24 µM (inactive) with HOP-92; 27.5 µM (inactive) with HT-29; 22.2 µM (inactive) with Hs-578T; 37 µM (inactive) in the test on M14. In addition, the GI50 with MDA-N was 34.9 µM (inactive); in the test with MOLT-4, 26.5 µM (inactive); in the test with OVCAR-5 it was 68.2 µM (inactive); in the test with RXF 393, 24.3 µM (inactive); in the test on SF-268 it was 38.7 µM (inactive); with SF-295 it was 25.9 µM (inactive). For the same compound, the GI50 was 24.5 µM (inactive) in the test with SK-MEL-2; 26.2 µM (inactive) in the test on SK-MEL-5; 41.4 µM (inactive) in the test on T47D; 47.8 µM (inactive) in the test on TK-10; 25.6 µM (inactive) with UACC-62; 29.8 µM (inactive) in the test on UO-31.
For the compound `C[n+]1ccccc1/C1=c2\cc/c([nH]2)=C(\c2cccc[n+]2C)C2=N/C(=C(/c3cccc[n+]3C)C3C=CC(N3)/C(c3cccc[n+]3C)=C3/C=CC1=N3)C=C2`, the GI50 was > 100 µM (inactive) in the test with A498; > 100 µM (inactive) with HCC 2998; 90.6 µM (inactive) in the test on HOP-92; 39.3 µM (inactive) with HT-29; > 100 µM (inactive) in the test on Hs-578T; > 100 µM (inactive) in the test with M14. In addition, the GI50 with MDA-N is > 100 µM (inactive); in the test on MOLT-4, 58.1 µM (inactive); in the test on OVCAR-5 it was > 100 µM (inactive); in the test on RXF 393, > 100 µM (inactive); in the test with SF-268 it was > 100 µM (inactive); with SF-295, > 100 µM (inactive). Also, the GI50 in the test on SK-MEL-2 is > 100 µM (inactive); in the test with SK-MEL-5, 71.4 µM (inactive); in the test on T47D, > 100 µM (inactive); with TK-10, > 100 µM (inactive); in the test with UACC-62, > 100 µM (inactive); in the test on UO-31 it was > 100 µM (inactive).
On to `CC(C#N)NCc1ccc(C(C)NC(C)C#N)cc1` (stereo unspecified), for which the GI50 in the test on A498, with HCC 2998, in the test on HOP-92, in the test with HT-29, with Hs-578T and in the test on M14 was > 100 µM (inactive) throughout. In addition, the GI50 in the test on MDA-N, with MOLT-4, with OVCAR-5, in the test on RXF 393, with SF-268 and with SF-295 was > 100 µM (inactive) in each case. Besides, the GI50 in the test on SK-MEL-2 is > 100 µM (inactive); in the test with SK-MEL-5 it was > 100 µM (inactive); with T47D it was > 100 µM (inactive); in the test with TK-10, > 100 µM (inactive); with UACC-62, > 100 µM (inactive); in the test on UO-31, 93.1 µM (inactive).
Turning to `CC1=CN(c2ccccc2)S2=C1c1sc3c(c1N2c1ccc(Br)cc1)CCCC3` (stereo unspecified), the GI50 in the test on A498, with HCC 2998, in the test on HOP-92, in the test with HT-29, in the test with Hs-578T and in the test on M14 was > 100 µM (inactive) each time. Moreover, the GI50 was > 100 µM (inactive) in the test on MDA-N; > 100 µM (inactive) with MOLT-4; 96.8 µM (inactive) in the test on OVCAR-5; > 100 µM (inactive) in the test with RXF 393; > 100 µM (inactive) in the test on SF-268; > 100 µM (inactive) in the test on SF-295. For the same compound, the GI50 in the test on SK-MEL-2 was > 100 µM (inactive); in the test with SK-MEL-5, > 100 µM (inactive); in the test on T47D, 91.2 µM (inactive); in the test with TK-10, > 100 µM (inactive); in the test on UACC-62 it was > 100 µM (inactive); in the test with UO-31, > 100 µM (inactive).
Consider `Cc1ccc(SCC(CSCCO)OCn2cnc3c2N=C(N)NC32OCCO2)cc1` (stereo unspecified), for which the GI50 in the test with A498, in the test with HCC 2998, in the test on HOP-92, in the test with HT-29, in the test on Hs-578T and in the test on M14 was > 100 µM (inactive) in each case. Also, the GI50 in the test on MDA-N, with MOLT-4, in the test on OVCAR-5, in the test with RXF 393, in the test with SF-268 and in the test with SF-295 was > 100 µM (inactive) throughout. Besides, the GI50 in the test with SK-MEL-2, in the test with SK-MEL-5, in the test on SNB-75, in the test with T47D, in the test with TK-10 and in the test on UO-31 was > 100 µM (inactive) each time.

(Values after ChEMBL document CHEMBL1201862, “PubChem BioAssay data set” (2004).)
